Measurements from US7642270B2, “5-oxo-5,8-dihydro-pyrido-pyrimidine as inhibitors of c-fms kinase” (Janssen Pharmaceutica N.V., priority 2005, dated 2010).

Experiments:
c-fms = c-fms (Homo sapiens, UniProt P07333); experiment: c-fms autophosphorylation, fluorescence polarization competition immunoassay; format: biochemical; settings: 10 nM c-fms, 1 mM ATP, 5 mM MgCl2, 45 min room temperature; averages of three independent measurements; read-out: c-fms Autophosphorylation IC50
CSF-1R = CSF-1R (Homo sapiens, UniProt P07333); experiment: Peptide (non-phosphorylated) assay: fluorescence polarization competition immunoassay of CSF-1R phosphorylation of synthetic CSF-1R555-568 peptide; format: biochemical; settings: 0.7 nM CSF-1R, 308 μM […], 1 mM ATP, 5 mM MgCl2, 80 min room temperature; mean of at least three determinations; read-out: c-fms Peptide IC50
Description: Peptide (Non-Phosphorylated) Assay
The kinase reaction was initiated by adding 1 μL of 10 mM ATP in assay buffer. […] Positive and negative control wells were included on each plate, where 4% DMSO in assay buffer was substituted for the compound; in addition, positive control wells received 1.2 μL of 50 mM EDTA before the start of the reaction.
The plates were covered and incubated at room temperature for 80 min. Reactions were stopped by addition of 1.2 μL of 50 mM EDTA. Each well then received 10 μL of a 1:1:3 mixture of 10× anti-phosphotyrosine antibody, 10×PTK green tracer, and FP dilution buffer, respectively (Cat. # P2837, Invitrogen, Carlsbad, Calif.). The plates were covered, incubated for 30 min at room temperature, and the fluorescence polarization was read on an Analyst plate reader (Molecular Devices).

c-fms, sequence (P07333 20-972): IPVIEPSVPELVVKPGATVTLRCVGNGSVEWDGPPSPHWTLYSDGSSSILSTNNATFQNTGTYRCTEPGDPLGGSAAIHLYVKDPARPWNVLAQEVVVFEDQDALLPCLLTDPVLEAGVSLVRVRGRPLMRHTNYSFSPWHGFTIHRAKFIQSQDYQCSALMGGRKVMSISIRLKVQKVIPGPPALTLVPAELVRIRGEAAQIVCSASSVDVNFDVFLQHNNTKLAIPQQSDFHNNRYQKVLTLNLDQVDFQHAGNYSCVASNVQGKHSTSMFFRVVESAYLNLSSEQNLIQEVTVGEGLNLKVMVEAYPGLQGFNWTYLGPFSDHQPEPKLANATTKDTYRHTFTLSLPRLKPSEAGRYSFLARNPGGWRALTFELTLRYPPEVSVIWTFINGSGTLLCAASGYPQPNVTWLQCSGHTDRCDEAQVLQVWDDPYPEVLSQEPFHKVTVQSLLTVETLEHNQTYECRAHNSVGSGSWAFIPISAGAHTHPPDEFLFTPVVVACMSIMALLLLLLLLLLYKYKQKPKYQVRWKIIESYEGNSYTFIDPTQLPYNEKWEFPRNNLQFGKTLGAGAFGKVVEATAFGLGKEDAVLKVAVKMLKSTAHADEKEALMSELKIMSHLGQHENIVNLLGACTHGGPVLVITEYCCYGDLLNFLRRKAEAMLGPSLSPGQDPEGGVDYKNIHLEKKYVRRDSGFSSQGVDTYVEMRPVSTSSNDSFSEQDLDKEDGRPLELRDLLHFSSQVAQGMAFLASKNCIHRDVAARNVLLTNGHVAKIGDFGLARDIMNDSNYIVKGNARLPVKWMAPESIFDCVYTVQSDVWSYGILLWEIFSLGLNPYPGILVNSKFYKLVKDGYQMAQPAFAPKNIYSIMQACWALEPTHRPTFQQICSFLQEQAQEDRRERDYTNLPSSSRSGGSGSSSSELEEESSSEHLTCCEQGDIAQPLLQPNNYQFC
CSF-1R, sequence (P07333 20-972): as above

Row | IC50 (c-fms) | IC50 (CSF-1R) | SMILES
1 | 13 nM | 3.9 nM | CN1CCN(c2ccc(Nc3ncc4c(=O)c(C(N)=O)cn(-c5ccc6c(c5)CCC6)c4n3)cc2)CC1 [Cpd 7, 8-Indan-5-yl-2-[4-(4-methyl-piperazin-1-yl)-phenylamino]-5-oxo-5,8-dihydro-pyrido[2,3-d]pyrimidine-6-carboxylic acid amide]
2 | 13 nM | 2.7 nM | CN(C)CC(O)COc1ccc(Nc2ncc3c(=O)c(C(N)=O)cn(-c4ccc5c(c4)CCC5)c3n2)cc1 (stereo not drawn) [Cpd 10, 2-[4-(3-Dimethylamino-2-hydroxy-propoxy)-phenylamino]-8-indan-5-yl-5-oxo-5,8-dihydro-pyrido[2,3-d]pyrimidine-6-carboxylic acid amide]
3 | 46 nM | 5.6 nM | CNC(=O)c1cn(-c2ccc3c(c2)CCC3)c2nc(Nc3ccc(OCC(O)CN(C)C)cc3)ncc2c1=O (stereo not drawn) [Cpd 11, 2-[4-(3-Dimethylamino-2-hydroxy-propoxy)-phenylamino]-8-indan-5-yl-5-oxo-5,8-dihydro-pyrido[2,3-d]pyrimidine-6-carboxylic acid methylamide]
4 | 12 nM | 4.3 nM | CN(C)c1cccc(Nc2ncc3c(=O)c(C(N)=O)cn(-c4ccc5c(c4)CCC5)c3n2)c1 [Cpd 16, 2-(3-Dimethylamino-phenylamino)-8-indan-5-yl-5-oxo-5,8-dihydro-pyrido[2,3-d]pyrimidine-6-carboxylic acid amide]
5 | 14 nM | 1.5 nM | CN1CCN(Cc2cccc(Nc3ncc4c(=O)c(C(N)=O)cn(-c5ccc6c(c5)CCC6)c4n3)c2)CC1 [Cpd 23, 8-Indan-5-yl-2-[3-(4-methyl-piperazin-1-ylmethyl)-phenylamino]-5-oxo-5,8-dihydro-pyrido[2,3-d]pyrimidine-6-carboxylic acid amide]
6 | 30 nM | 1.6 nM | CNC(=O)c1cn(-c2ccc3c(c2)CCC3)c2nc(Nc3ccc(CCN4CCOCC4)cc3)ncc2c1=O [Cpd 28, 8-Indan-5-yl-2-[4-(2-morpholin-4-yl-ethyl)-phenylamino]-5-oxo-5,8-dihydro-pyrido[2,3-d]pyrimidine-6-carboxylic acid methyl amide]
7 |  | 0.58 nM | CC1CN(c2ccc(Nc3ncc4c(=O)c(C(N)=O)cn(-c5ccc6c(c5)CCC6)c4n3)cc2)CC(C)N1 (stereo not drawn) [Cpd 43, 2-[4-(3,5-Dimethyl-piperazin-1-yl)-phenylamino]-8-indan-5-yl-5-oxo-5,8-dihydro-pyrido[2,3-d]pyrimidine-6-carboxylic acid amide]
8 | 8 nM | 0.53 nM | CNC(=O)c1cn(-c2ccc3c(c2)CCC3)c2nc(Nc3ccc(N4CC(C)NC(C)C4)cc3)ncc2c1=O (stereo not drawn) [Cpd 44, 2-[4-(3,5-Dimethyl-piperazin-1-yl)-phenylamino]-8-indan-5-yl-5-oxo-5,8-dihydro-pyrido[2,3-d]pyrimidine-6-carboxylic acid methyl amide]
9 | 15 nM | 1.3 nM | CNC(=O)c1cn(-c2ccc3c(c2)CCC3)c2nc(Nc3ccc(CCN4CCN(C)CC4)cc3)ncc2c1=O [Cpd 47, 8-Indan-5-yl-2-{4-[2-(4-methyl-piperazin-1-yl)-ethyl]-phenylamino}-5-oxo-5,8-dihydro-pyrido[2,3-d]pyrimidine-6-carboxylic acid methyl amide]
10 | 8 nM | 0.49 nM | NC(=O)c1cn(-c2ccc3c(c2)CCC3)c2nc(Nc3ccc(C4CCNCC4)cc3)ncc2c1=O [Cpd 49, 8-Indan-5-yl-5-oxo-2-(4-piperidin-4-yl-phenylamino)-5,8-dihydro-pyrido[2,3-d]pyrimidine-6-carboxylic acid amide]
11 | 15 nM | 0.97 nM | CNC(=O)c1cn(-c2ccc3c(c2)CCC3)c2nc(Nc3ccc(C4CCNCC4)cc3)ncc2c1=O [Cpd 50, 8-Indan-5-yl-5-oxo-2-(4-piperidin-4-yl-phenylamino)-5,8-dihydro-pyrido[2,3-d]pyrimidine-6-carboxylic acid methyl amide]
